Assay results from patent publication US20130288964A1, “Use of peptides for promoting wound healing” (priority 2008, published 2013).
Like-named read-outs stand apart in the source and are kept apart here. Where no end group is shown, it is not given here.

What was measured:
[1] = Candicidal activity LC50 ± SD
Description: 2.3 Potency of Histatin induced wound closure, stereo-specificity of Histatin 2, candidacidal activities of the different histatins. Next the potency of the different Histatins in both wound healing as their candidacidal activities was studied. Histatins are known for their antimicrobial activity.
We tested synthesized Histatins 1, 2, 3, 5 and the enantiomer of Histatin 2 (designated D-Histatin 2) on wound closure and candidacidal activities. In the test concentrations of 1, 5, 10, 30 and 50 μg/ml of the peptides were tested.

[2] = tested on: human buccal epithelial cell line TR146; test: In vitro wound healing (scratch wound closure) experiments; format: cell-based; conditions: for Wound closure rel. clos. ± SD: closure approx. 16 h after wounding relative to negative control, synthetic peptides in SFM, * significant
Description: The human buccal epithelial cell line TR146 (Rupniak et al; J Natl Cancer Inst. 1985 October; 75(4):621-35) was kindly provided by Cancer Research UK. Cells were grown in Dulbecco's modified Eagle medium with 4.5 g/l glucose (Invitrogen), 10% FCS (HyClone) and […] penicillin, […] streptomycin, and 250 ng/ml amphotericinB (Antibiotic antimyotic solution, Sigma,), at 37° C., 95% humidity and 5% CO2. Cells were maintained until near confluence and then briefly treated with 0.25% trypsin-EDTA lx (Invitrogen) to detach them, counted in a hepacytometer and seeded into new flasks or multi-well plates at the required cell density of about 1.5×10×5 cells/well.
Wound assays were performed as previously described (Matthay et al., 1993, J Cell Sci. 106 (Pt 3):869-78). In brief, cells were grown in 12-well plates until confluence, and then were serum deprived for 24 hours in keratinocyte serum free medium (SFM (Invitrogen)). In each well a scratch was made in the cellular monolayer using a sterile tip. The wounded monolayer was washed with SFM to remove cellular debris, and the following conditions were applied: • (i) Whole saliva and salivary secretions applied in 30% (v/v) in SFM. As a negative control 30% (v/v) saliva buffer was used. • (ii) (ii) rhEGF (Invitrogen) as a positive control • (iii) rp-HPLC fractions containing salivary proteins; • (iv) synthetic peptides: the experiments with isolated proteins and synthetic peptides were performed in full SFM.
The width of the wound area was determined microscopically immediately after wound creation and at approximately 16 hours after wounding. The relative closure was calculated by relating the closure to that of the negative control.
For inhibitor studies; directly after wounding cells were exposed to inhibitors of ERK1/2 (U0126, 5 μM, LC Laboratories), EGFR (AG1478, 1 μM, Calbiochem), and p38 MAPK (SB203580, 5 μM; LC Laboratories). Experiments were done in quadruplicate and analyzed using One-way ANOVA to determine significance with additional LSD post hoc test, P<0.05 was considered significant.

[3] = tested on: epithelial cells; test: Internalization of FITC labeled histatin in epithelial cells (microscopy); format: cell-based, human; conditions: FITC labeled histatin incubated two hours (data not shown)
Description: Microscope: Leica DM IL PLAN 4-40x magnification, 0.5 lens; camera: Leica DFC320; and acquisition software: Leica IM500. Images were quantified using Adobe Photoshop CS3. Additionally, brightness/contrast levels of the co-localization studies were altered with Adobe Photoshop CS3. FITC labeled histatin was incubated with the cells for two hours. PI was added to check for membrane disruptive dependent internalization. 100 mM Azide was used for 1 hour. Cells were trypsinized as described above. Co-localization studies were performed using Mitotracker (Invitrogen) and Lysotracker (Invitrogen) following manufacturer's instructions. In Candida Histatin 5 is internalized and associates with the energized mitochondrion. Given the abovementioned discrepancy between C. albicans and epithelial cells we were very interested whether histatins become internalized and where in the cells they accumulate. […] NaN3 inhibits the function of cytochrome c oxidase by binding irreversibly to the heme cofactor. Thus, NaN3 treatment lead us to conclude that the internalization energy dependent. […] Which, in addition to the stereo-specificity, is indicating a receptor mediated process. We used mitochondria and acidic lysosome specific markers to elucidate histatin's fate once it is internalized

Compound	CC50 ([1]; 1 mM PPB) [nM]	CC50 ([1]; SFM) [nM]	Wound closure rel. clos. ± SD [2]	induction of wound closure ([2]; synthesized peptides, 1-50 μg/ml)	optimal concentration for wound closure ([2]; tested at 1, 5, 10, 30 and 50 μg/ml) [µg/mL]	internalization into epithelial cells [3]	relative wound closure ([2]; peptide concentration 1*10-3 μM, 1 = no peptide added (FIG. 4))	induction of wound closure ([2]; EGF 5 ng/ml)	induced wound closure with EGF receptor blocked ([2]; EGFR inhibitor AG1478 1 μM)	MAPK pathway dependence of induced wound closure ([2]; inhibitors U0126 5 μM (ERK1/2), SB203580 5 μM (p38 MAPK), FIG. 2)
CC(C)C[C@H](NC(=O)[C@H](Cc1ccc(O)cc1)NC(=O)[C@H](CC(N)=O)NC(=O)[C@H](CO)NC(=O)[C@H](CCCNC(=N)N)NC(=O)[C@H](Cc1ccc(O)cc1)NC(=O)CNC(=O)[C@H](CCCNC(=N)N)NC(=O)[C@H](Cc1c[nH]cn1)NC(=O)[C@H](CO)NC(=O)[C@H](Cc1c[nH]cn1)NC(=O)[C@H](Cc1c[nH]cn1)NC(=O)[C@H](CCCCN)NC(=O)[C@H](CCC(=O)O)NC(=O)[C@H](Cc1c[nH]cn1)NC(=O)[C@H](Cc1ccccc1)NC(=O)[C@H](CCCCN)NC(=O)[C@H](CCCNC(=N)N)NC(=O)[C@H](CCCCN)NC(=O)[C@H](Cc1ccc(O)cc1)NC(=O)CNC(=O)[C@H](Cc1c[nH]cn1)NC(=O)[C@H](Cc1c[nH]cn1)NC(=O)[C@H](CCCNC(=N)N)NC(=O)[C@H](CCCCN)NC(=O)[C@H](C)NC(=O)[C@H](Cc1c[nH]cn1)NC(=O)[C@H](CO)NC(=O)[C@@H](N)CC(=O)O)C(=O)N[C@@H](Cc1ccc(O)cc1)C(=O)N[C@@H](CC(=O)O)C(=O)N[C@@H](CC(N)=O)C(=O)O [Histatin 3]	1100 ± 100	> 100000	1.21 ± 0.12*	induce wound closure	30 to 50	are internalized	–	–	–	–
C-HST1: cyclic peptide having the amino acid sequence according to SEQ. ID. NO. 4, Histatin 1 (DSHEKRHHGYRRKFHEKHHSHREFPFYGDYGSNYLYDN; also: cyclic (type and places not given here))	–	–	–	–	–	–	1.5	–	–	–
EGF: epidermal growth factor; rhEGF (Invitrogen) as a positive control	–	–	1.41 ± 0.12*	–	–	–	–	able to induce wound closure	abolished the effect	p38^MAPK dependent
